Source: patent US20080020981A1, “Non-nucleoside reverse transcriptase inhibitors” (Roche Palo Alto LLC, priority 2006, published 2008)
Structures can show the parent of a compound that is named as a salt. Where two headings read alike, the source gives them in different places.

What was measured:
[1] = biological target: T1, HIV-RT enzyme (HIV-1 reverse transcriptase) (Human immunodeficiency virus type 1 group M subtype B, UniProt P03366); experiment: HIV-1 Reverse Transcriptase Assay Inhibitor IC50 Determination (RNA-dependent DNA polymerase activity, SPA); assay type: biochemical
T1 construct: Reactions were initiated by the addition of 30 μl of the HIV-RT enzyme
Experimental: HIV-1 Reverse Transcriptase Assay Inhibitor IC50 Determination
RNA-dependent DNA polymerase activity was measured using a biotinylated primer oligonucleotide and tritiated dNTP substrate. Newly synthesized DNA was quantified by capturing the biotinylated primer molecules on streptavidin coated Scintillation Proximity Assay (SPA) beads (Amersham). […] The biotinylated DNA primer was obtained from the Integrated DNA Technologies Inc. and the RNA template was synthesized by Dharmacon. […] Reactions were initiated by the addition of 30 μl of the HIV-RT enzyme (final concentrations of […]). Protein concentrations were adjusted to provide linear product formation for at least 30 min of incubation. After incubation at 30° for 30 min, the reaction was quenched by addition of 50 μl of 200 mM EDTA (pH 8.0) and 2 mg/ml SA-PVT SPA beads (Amersham, RPNQ0009, reconstituted in 20 mM Tris-HCl, pH 8.0, 100 mM EDTA and 1% BSA). The beads were left to settle overnight and the SPA signals were counted in a 96-well top counter-NXT (Packard). IC50 values were obtained by sigmoidal regression analysis using GraphPad Prism 3.0 (GraphPad Software, Inc.).

[2] = RNA-dependent DNA polymerase activity, SPA, 30 min at 30°, read-out: HIV-RT IC50

“2-[3-(3-Chloro-5-cyano-phenoxy)-4-cyclopropyl-2-fluoro-phenoxy]-N-(2-chloro-4-sulfamoyl-phenyl)-acetamide [I-9]” gave an IC50 [1, 2] of 7.7 nM.

For “2-[4-Bromo-3-(3-chloro-5-cyano-phenoxy)-2-fluoro-phenoxy]-N-[2-chloro-4-(2,4-dioxo-imidazolidin-1-yl)-phenyl]-acetamide [I-30]”, the IC50 [1, 2] was 15.5 nM.

“2-[4-Chloro-3-(3,5-dicyano-phenoxy)-2-fluoro-phenoxy]-N-(2-methyl-4-sulfamoyl-phenyl)-acetamide [I-14]” gave an IC50 [1, 2] of 6.4 nM.

With `CCC(=O)NS(=O)(=O)c1ccc(NC(=O)COc2ccc(Br)c(Oc3cc(Cl)cc(C#N)c3)c2F)c(Cl)c1` (as salt: Na) [I-23] the melting point was 261 to 264 °C.

`CCC(=O)NS(=O)(=O)c1ccc(NC(=O)COc2ccc(Br)c(Oc3cc(Cl)cc(C#N)c3)c2F)c(C)c1` (as salt: Na) [I-24] showed a melting point of 268.1 to 270 °C.

Work on `N#Cc1cc(Cl)cc(Oc2c(Cl)ccc(OCC(=O)Nc3ccc(S(N)(=O)=O)cc3Cl)c2F)c1` [I-1, 2-[4-Chloro-3-(3-chloro-5-cyano-phenoxy)-2-fluoro-phenoxy]-N-(2-chloro-4-sulfamoyl-phenyl)-acetamide] yielded an IC50 [1, 2] of 16.2 nM and a melting point of 233.3 to 247.6 °C.

`Cc1cc(S(N)(=O)=O)ccc1NC(=O)COc1ccc(Cl)c(Oc2cc(Cl)cc(C#N)c2)c1F` [I-2] gave an IC50 [1, 2] of 12.8 nM and a melting point of 209.9 to 212 °C.

Work on `Cc1cc(S(N)(=O)=O)ccc1NC(=O)COc1ccc(Br)c(Oc2cc(Cl)cc(C#N)c2)c1F` [I-4, 2-[4-Bromo-3-(3-chloro-5-cyano-phenoxy)-2-fluoro-phenoxy]-N-(2-methyl-4-sulfamoyl-phenyl)-acetamide] yielded an IC50 [1, 2] of 6.5 nM and a melting point of 226 to 228.8 °C.

With `N#Cc1cc(Cl)cc(Oc2c(Br)ccc(OCC(=O)Nc3ccc(S(N)(=O)=O)cc3Cl)c2F)c1` [I-5] the IC50 [1, 2] was 18.7 nM and the melting point was 250.9 to 252.3 °C.

Compound `CCc1ccc(OCC(=O)Nc2ccc(S(N)(=O)=O)cc2C)c(F)c1Oc1cc(Cl)cc(C#N)c1` [I-6, 2-[3-(3-Chloro-5-cyano-phenoxy)-4-ethyl-2-fluoro-phenoxy]-N-(2-methyl-4-sulfamoyl-phenyl)-acetamide] has an IC50 [1, 2] of 8.4 nM and a melting point of 188 to 189.6 °C.

For `CCc1ccc(OCC(=O)Nc2ccc(S(N)(=O)=O)cc2Cl)c(F)c1Oc1cc(Cl)cc(C#N)c1` [I-7], the IC50 [1, 2] was > 10000 nM.

`N#Cc1cc(Cl)cc(Oc2c(C3CC3)ccc(OCC(=O)Nc3ccc(S(N)(=O)=O)cc3Cl)c2F)c1` [I-8] gave an IC50 [1, 2] of 18.3 nM and a melting point of 210 to 211 °C.

With `N#Cc1cc(Cl)cc(Oc2cc(OCC(=O)Nc3ccc(S(N)(=O)=O)cc3Cl)ccc2Cl)c1` [I-10] the IC50 [1, 2] was 7.4 nM and the melting point was 217 to 219 °C.

With `COc1cc(C#N)cc(Oc2c(Cl)ccc(OCC(=O)Nc3ccc(S(N)(=O)=O)cc3C)c2F)c1` [I-11] the IC50 [1, 2] was 3.1 nM and the melting point was 122 to 123.2 °C.

With `COc1cc(C#N)cc(Oc2c(Cl)ccc(OCC(=O)Nc3ccc(S(N)(=O)=O)cc3Cl)c2F)c1` [I-12] the IC50 [1, 2] was 8.2 nM and the melting point was 211 to 212 °C.

Work on `Cc1cc(S(N)(=O)=O)ccc1NC(=O)COc1ccc(Cl)c(Oc2cc(C#N)cc(C#N)c2)c1F` [I-13] yielded an IC50 [1, 2] of 3.8 nM and a melting point of 264.5 to 265.2 °C.

`Cc1cc(S(N)(=O)=O)ccc1NC(=O)COc1ccc(Cl)c(Oc2cc(Cl)cc(C#N)c2)c1` [I-15, 2-[4-Chloro-3-(3-chloro-5-cyano-phenoxy)-phenoxy]-N-(2-methyl-4-sulfamoyl-phenyl)-acetamide] gave an IC50 [1, 2] of 6.5 nM.

For `COc1cc(C#N)cc(Oc2c(Br)ccc(OCC(=O)Nc3ccc(S(N)(=O)=O)cc3C)c2F)c1` [I-16], the IC50 [1, 2] was 5.1 nM and the melting point was 220 to 223.3 °C.

Compound `COc1cc(C#N)cc(Oc2c(Br)ccc(OCC(=O)Nc3ccc(S(N)(=O)=O)cc3Cl)c2F)c1` [I-17] has an IC50 [1, 2] of 12.6 nM and a melting point of 213.9 to 217.9 °C.

For `Cc1cc(S(N)(=O)=O)ccc1NC(=O)COc1ccc(Cl)c(Oc2cc(Br)cc(C#N)c2)c1F` [I-18], the IC50 [1, 2] was 6.6 nM and the melting point was 234.9 to 236.6 °C.

`N#Cc1cc(Br)cc(Oc2c(Cl)ccc(OCC(=O)Nc3ccc(S(N)(=O)=O)cc3Cl)c2F)c1` [I-19] gave an IC50 [1, 2] of 14.9 nM and a melting point of 242.2 to 244.9 °C.

With `CCc1cc(C#N)cc(Oc2c(Cl)ccc(OCC(=O)Nc3ccc(S(N)(=O)=O)cc3Cl)c2F)c1` [I-20, 2-[4-Chloro-3-(3-cyano-5-ethyl-phenoxy)-2-fluoro-phenoxy]-N-(2-chloro-4-sulfamoyl-phenyl)-acetamide] the IC50 [1, 2] was 31.7 nM.

Compound `N#Cc1cc(C#N)cc(Oc2c(Br)ccc(OCC(=O)Nc3ccc(S(N)(=O)=O)cc3Cl)c2F)c1` [I-21] has an IC50 [1, 2] of 19.1 nM and a melting point of 255 to 257 °C.

In the case of `CCC(=O)NS(=O)(=O)c1ccc(NC(=O)COc2ccc(Br)c(Oc3cc(Cl)cc(C#N)c3)c2F)c(Cl)c1` [I-23], the IC50 [1, 2] is reported as 4.8 nM.

Work on `CCC(=O)NS(=O)(=O)c1ccc(NC(=O)COc2ccc(Br)c(Oc3cc(Cl)cc(C#N)c3)c2F)c(C)c1` [I-24] yielded an IC50 [1, 2] of 5.7 nM.

Compound `N#Cc1cc(Oc2c(Cl)ccc(OCC(=O)Nc3ccc(S(N)(=O)=O)cc3Cl)c2F)cc(C2CC2)c1` [I-26] has an IC50 [1, 2] of 66.5 nM and a melting point of 219 to 221 °C.

`N#Cc1cc(Cl)cc(Oc2c(Cl)ccc(OCC(=O)Nc3ccc(C(=O)O)cc3Cl)c2F)c1` [I-27, 3-Chloro-4-{2-[4-chloro-3-(3-chloro-5-cyano-phenoxy)-2-fluoro-phenoxy]-acetylamino}-benzoic acid] gave an IC50 [1, 2] of 6.1 nM.

`Cc1cc(C(N)=O)ccc1NC(=O)COc1ccc(Br)c(Oc2cc(Cl)cc(C#N)c2)c1F` [I-28, 4-{2-[4-Bromo-3-(3-chloro-5-cyano-phenoxy)-2-fluoro-phenoxy]-acetylamino}-3-methyl-benzamide] gave an IC50 [1, 2] of 6.9 nM and a melting point of 250.6 to 252.5 °C.

Compound `CC(C)(O)C#Cc1ccc(NC(=O)COc2ccc(Br)c(Oc3cc(Cl)cc(C#N)c3)c2F)c(Cl)c1` [I-31, 2-[4-Bromo-3-(3-chloro-5-cyano-phenoxy)-2-fluoro-phenoxy]-N-[2-chloro-4-(3-hydroxy-3-methyl-but-1-ynyl)-phenyl]-acetamide] has an IC50 [1] of 82.1 nM.

`CC(C)(N)C#Cc1ccc(NC(=O)COc2ccc(Cl)c(Oc3cc(Cl)cc(C#N)c3)c2F)c(Cl)c1` [I-32, N-[4-(3-Amino-3-methyl-but-1-ynyl)-2-chloro-phenyl]-2-[4-chloro-3-(3-chloro-5-cyano-phenoxy)-2-fluoro-phenoxy]-acetamide] gave an IC50 [1, 2] of 21.4 nM.
